The source of these data is patent US11524934B2, “Phenylamine compounds” (PI INDUSTRIES LTD., priority 2017, dated 2022).

As usually defined, the pest or weed control is the degree to which the test organism was suppressed or injured, in per cent.

One test relates to Pyricularia oryzae. In words: microbe, parasite or virus in culture. In kind it is cell-based. As to conditions: 168 h, read-out: control.
For a further test, the system named is Fusarium culmorum. In words: Fusarium culmorum (Foot rot of cereals) in vitro test, radial growth on Potato Dextrose Agar. In kind it is cell-based. Particulars: 168 h, read-out: control.
For another test, the system named is Phakopsora pachyrhizi. In words: Phakopsora pachyrhizi test in soybean (in vivo on plants), preventive activity. As to conditions: preventive spray on soybean plants, inoculated one day after treatment, disease severity rated vs untreated check. How it is done: Example 8 (In Vivo on Plants): Phakopsora pachyrhizi Test in Soybean
Compounds were dissolved in 2% DMSO/Acetone & then mixed with water to the calibrated spray volume of 50 ml and poured into the spray bottles for further applications.
To test the preventive activity of compounds, healthy young soybean plants raised in the greenhouse were sprayed with active compound preparation at the stated application rates inside the spray cabinets using hallowcone nozzles. One day after treatment, the plants were inoculated with spore suspension containing 2.1×10^6 Phakopsora pachyrhizi inoculum. The inoculated plants were then kept in greenhouse chamber at 25° C. temperature & 90% Relative Humidity for disease expression.
A visual assessment of compound's performance was carried out by rating the disease severity (0-100% scale) on treated plants on 3, 7, 10 & 15 days after application. Efficacy (% control) of the compounds was calculated by comparing the disease rating in the treatment with the one of the untreated control. The sprayed plants were also assessed for compound's plant compatibility by recording symptoms like necrosis, chlorosis & stunting.

For a further test, the system named is Botrytis cinerea. Description: Botrytis cinerea (Gray mold) in vitro test, radial growth on Potato Dextrose Agar. Particulars: 168 h, read-out: control.
In another test the test system is Colletotrichum capsici. In words: Colletotrichum capsici (anthracnose) in vitro test, radial growth on Potato Dextrose Agar. Particulars: Colletotrichum truncatum, 168 h, read-out: control.
For the next test, the system named is Septoria lycopersici. In words: Septoria lycopersici (Leaf spot of tomato) in vitro test, radial growth on Potato Dextrose Agar. As to conditions: 168 h, read-out: control.
The test system of another test is Alternaria solani. Description: Alternaria solani (early blight of tomato/potato) in vitro test, radial growth on Potato Dextrose Agar. As to conditions: 168 h, read-out: control.
A further test concerns Rhizoctonia solani. As to conditions: 168 h, read-out: control.

Protocol for Alternaria solani: (§1) Compounds of present invention were assessed for activity against one or more of the following: Biological Test Examples, in vitro test
Protocol for Botrytis cinerea: as §1
Botrytis cinerea (Gray mold): Compounds were dissolved in 0.3% DMSO & then added to Potato Dextrose Agar medium just prior to dispensing it into Petri dishes. 5 ml medium with compound in the desired concentration was dispensed into 60 mm sterile Petri-plates. After solidification each plate was seeded with 5 mm size mycelial disc taken form periphery of actively growing virulent culture plate. Plates were incubated in growth chambers at 22° C. temperature & 90% Relative Humidity for seven days and radial growth was measured.
Protocol for Colletotrichum capsici: Colletotrichum capsici (anthracnose): Compounds were dissolved in 0.3% DMSO & then added to Potato Dextrose Agar medium just prior to dispensing it into Petri dishes. 5 ml medium with compound in the desired concentration was dispensed into 60 mm sterile petri-plates. After solidification each plate was seeded with 5 mm size mycelial disc taken form periphery of actively growing virulent culture plate. Plates were incubated in growth chambers at 25° C. temperature & 60% Relative Humidity for seven days and radial growth was measured.
Protocol for Rhizoctonia solani: Rhizoctonia solani (Rice sheath blight/Potato black scurf): Compounds were dissolved in 0.3% DMSO & then added to Potato Dextrose Agar medium just prior to dispensing it into Petri dishes. 5 ml medium with compound in the desired concentration was dispensed into 60 mm sterile Petri-plates. After solidification each plate was seeded with 5 mm size mycelial disc taken form periphery of actively growing virulent culture plate. Plates were incubated in growth chambers at 25° C. temperature & 60% Relative Humidity for seven days and radial growth was measured.
Protocol for Septoria lycopersici: Septoria lycopersici (Leaf spot of tomato): Compounds were dissolved in 0.3% DMSO & then added to Potato Dextrose Agar medium just prior to dispensing it into Petri dishes. 5 ml medium with compound in the desired concentration was dispensed into 60 mm sterile petri-plates. After solidification each plate was seeded with 5 mm size mycelial disc taken form periphery of actively growing virulent culture plate. Plates were incubated in growth chambers at 25° C. temperature & 70% Relative Humidity for seven days and radial growth was measured.

Regarding `CCN(C)C=Nc1cc(C)c(C(=O)COc2ccccc2)cc1C` [Compound 2, N′-(2,5-dimethyl-4-(2-phenoxyacetyl)phenyl)-N-ethyl-N-methylformimidamide], the inhibition of growth at 300 ppm is > 70% in the test on Pyricularia oryzae; 70% with Fusarium culmorum; > 70% with Botrytis cinerea; > 70% in the test with Colletotrichum capsici; > 70% in the test on Septoria lycopersici; > 70% with Alternaria solani. Besides, in the test on Rhizoctonia solani, the inhibition of growth at 300 ppm was > 70%. For the same compound, the pest or weed control at 500 ppm in the test with Phakopsora pachyrhizi was > 90%.

Take `CCN(C)C=Nc1cc(C)c(C(=O)CSc2cccc(C)c2)cc1C` [Compound 5, N′-(2,5-dimethyl-4-(2-(m-tolylthio)acetyl)phenyl)-N-ethyl-N-methylformimidamide]: the inhibition of growth at 300 ppm is > 70% in the test with Pyricularia oryzae; 70% in the test with Fusarium culmorum; > 70% in the test with Botrytis cinerea; > 70% in the test with Colletotrichum capsici; > 70% with Septoria lycopersici; > 70% in the test with Alternaria solani.

As to `CCN(C)C=Nc1cc(C)c(C(=O)CSc2cccc(Br)c2)cc1C` [Compound 6, N′-(4-(2-((3-bromophenyl)thio)acetyl)-2,5-dimethylphenyl)-N-ethyl-N-methylformimidamide], the inhibition of growth at 300 ppm in the test with Pyricularia oryzae, with Botrytis cinerea, in the test with Colletotrichum capsici, in the test on Septoria lycopersici, with Alternaria solani and with Rhizoctonia solani was > 70% each time. For the same compound, in the test with Phakopsora pachyrhizi, the pest or weed control at 500 ppm is > 90%.

Turning to `CCN(C)C=Nc1cc(C)c(C(=O)COc2cccc(F)c2)cc1C` [Compound 9, N-ethyl-N′-(4-(2-(3-fluorophenoxy)acetyl)-2,5-dimethylphenyl)-N-methylformimidamide], the inhibition of growth at 300 ppm with Pyricularia oryzae, in the test on Botrytis cinerea, in the test with Colletotrichum capsici, in the test with Septoria lycopersici, with Alternaria solani and with Rhizoctonia solani was > 70% throughout. Also, the pest or weed control at 500 ppm in the test on Phakopsora pachyrhizi was > 90%.

Consider `CCN(C)C=Nc1cc(C)c(C(=O)COc2ccc(C)cc2)cc1C` [Compound 15, N′-(2,5-dimethyl-4-(2-(p-tolyloxy)acetyl)phenyl)-N-ethyl-N-methylformimidamide], for which the inhibition of growth at 300 ppm in the test with Pyricularia oryzae, with Botrytis cinerea, in the test on Colletotrichum capsici, with Septoria lycopersici, in the test on Alternaria solani and in the test on Rhizoctonia solani was > 70% in each case. In addition, the pest or weed control at 500 ppm with Phakopsora pachyrhizi was > 90%.

As to `CCN(C)C=Nc1cc(C)c(C(=O)CSc2ccc(F)cc2)cc1C` [Compound 28, N-ethyl-N′-(4-(2-((4-fluorophenyl)thio)acetyl)-2,5-dimethylphenyl)-N-methylformimidamide], the inhibition of growth at 300 ppm was > 70% in the test with Pyricularia oryzae; 70% in the test on Fusarium culmorum; > 70% in the test with Botrytis cinerea; > 70% with Colletotrichum capsici; > 70% in the test with Septoria lycopersici; > 70% in the test with Alternaria solani. The inhibition of growth at 300 ppm with Rhizoctonia solani is > 70%.

On to `CCN(C)C=Nc1cc(C)c(C(=O)CSc2ccc(Cl)cc2)cc1C` [Compound 29, N′-(4-(2-((4-chlorophenyl)thio)acetyl)-2,5-dimethylphenyl)-N-ethyl-N-methylformimidamide], for which the inhibition of growth at 300 ppm with Pyricularia oryzae was > 70%; with Fusarium culmorum, 70%; in the test on Botrytis cinerea it was > 70%; in the test with Septoria lycopersici, > 70%; in the test with Alternaria solani, > 70%; in the test with Rhizoctonia solani it was > 70%.

In the case of `CCN(C)C=Nc1cc(C)c(C(=O)C(C)(C)Sc2cccc(C)c2)cc1C` [Compound 83, N′-(2,5-dimethyl-4-(2-methyl-2-(m-tolylthio)propanoyl)phenyl)-N-ethyl-N-methylformimidamide], the inhibition of growth at 300 ppm is > 70% with Pyricularia oryzae; 70% in the test with Fusarium culmorum; > 70% with Botrytis cinerea; > 70% in the test with Colletotrichum capsici; > 70% in the test on Alternaria solani; > 70% in the test with Rhizoctonia solani.

As to `CCN(C)C=Nc1cc(C)c(C(=O)CN(C)c2ccc(Cl)cc2)cc1C` [Compound 84, N′-(4-(N-(4-chlorophenyl)-N-methylglycyl)-2,5-dimethylphenyl)-N-ethyl-N-methylformimidamide], the inhibition of growth at 300 ppm in the test with Pyricularia oryzae is > 70%; in the test on Fusarium culmorum it was 70%; in the test with Botrytis cinerea it was > 70%; with Colletotrichum capsici it was > 70%; in the test on Septoria lycopersici, > 70%; in the test on Alternaria solani it was > 70%. For the same compound, the inhibition of growth at 300 ppm in the test with Rhizoctonia solani was > 70%.

As to `CCN(C)C=Nc1cc(C)c(C(=O)COc2c(Cl)cccc2Cl)cc1C` [Compound 86, N′-(4-(2-(2,6-dichlorophenoxy)acetyl)-2,5-dimethylphenyl)-N-ethyl-N-methylformimidamide], the inhibition of growth at 300 ppm in the test with Pyricularia oryzae was > 70%; in the test with Fusarium culmorum, 70%; with Botrytis cinerea, > 70%; in the test on Colletotrichum capsici, > 70%; in the test with Alternaria solani, > 70%; in the test on Rhizoctonia solani it was > 70%.

For `CCN(C)C=Nc1cc(C)c(C(=O)COc2c(C)cccc2Br)cc1C` [Compound 88, N′-(4-(2-(2-bromo-6-methylphenoxy)acetyl)-2,5-dimethylphenyl)-N-ethyl-N-methylformimidamide], the inhibition of growth at 300 ppm was > 70% with Pyricularia oryzae; 70% in the test on Fusarium culmorum; > 70% in the test on Botrytis cinerea; > 70% with Colletotrichum capsici; > 70% in the test with Septoria lycopersici; > 70% with Alternaria solani. In addition, the inhibition of growth at 300 ppm with Rhizoctonia solani was > 70%.

In the case of `CCN(C)C=Nc1cc(C)c(C(=O)COc2c(C)cccc2Cl)cc1C` [Compound 91, N′-(4-(2-(2-chloro-6-methylphenoxy)acetyl)-2,5-dimethylphenyl)-N-ethyl-N-methylformimidamide], the inhibition of growth at 300 ppm is > 70% in the test with Pyricularia oryzae; 70% in the test with Fusarium culmorum; > 70% in the test on Botrytis cinerea; > 70% in the test with Colletotrichum capsici; > 70% in the test with Alternaria solani; > 70% with Rhizoctonia solani.

Turning to `CCN(C)C=Nc1cc(C)c(C(=O)CSc2ccc(F)cc2F)cc1C` [Compound 102, N′-(4-(2-((2,4-difluorophenyl)thio)acetyl)-2,5-dimethylphenyl)-N-ethyl-N-methylformimidamide], the inhibition of growth at 300 ppm is > 70% with Pyricularia oryzae; 70% in the test on Fusarium culmorum; > 70% in the test with Botrytis cinerea; > 70% in the test on Colletotrichum capsici; > 70% in the test on Septoria lycopersici; > 70% with Alternaria solani. Moreover, the inhibition of growth at 300 ppm with Rhizoctonia solani was > 70%.

As to `CCN(C)C=Nc1cc(C)c(C(=O)CSc2c(F)cccc2F)cc1C` [Compound 103, N′-(4-(2-((2,6-difluorophenyl)thio)acetyl)-2,5-dimethylphenyl)-N-ethyl-N-methylformimidamide], the inhibition of growth at 300 ppm was > 70% in the test with Pyricularia oryzae; 70% in the test with Fusarium culmorum; > 70% in the test on Botrytis cinerea; > 70% in the test on Colletotrichum capsici; > 70% with Septoria lycopersici; > 70% in the test with Alternaria solani. In the test with Rhizoctonia solani, the inhibition of growth at 300 ppm is > 70%.

Take `Cc1cc(C(=O)COc2ccccc2Cl)c(C)cc1N=CN(C)C` [Compound 109, N′-(4-(2-(2-chlorophenoxy)acetyl)-2,5-dimethylphenyl)-N,N-dimethylformimidamide]: the inhibition of growth at 300 ppm is > 70% in the test with Pyricularia oryzae, 70% in the test with Fusarium culmorum, > 70% in the test on Colletotrichum capsici and > 70% in the test with Alternaria solani.

Consider `CCN(C)C=Nc1cc(C)c(C(=O)Cn2cnnc2)cc1C` [Compound 114, N′-(4-(2-(4H-1,2,4-triazol-4-yl)acetyl)-2,5-dimethylphenyl)-N-ethyl-N-methylformimidamide], for which the inhibition of growth at 300 ppm in the test on Pyricularia oryzae was > 70%; in the test on Fusarium culmorum, 70%; in the test with Botrytis cinerea, > 70%; in the test with Colletotrichum capsici, > 70%; in the test with Alternaria solani it was > 70%; in the test on Rhizoctonia solani, > 70%.
